Measured values reported in patent US12365658B2, “Benzothia(di)azepine compounds and their use as bile acid modulators” (Albireo AB, priority 2021, dated 2025).

Tests used:
Human LBAT = biological target: T1, Human LBAT (Homo sapiens, UniProt Q14973); experiment: LBAT (h/m) assay, human LBAT-overexpressing cells, 3H-taurocholic acid uptake; format: cell-based; settings: 0.3 μM 3H-taurocholic acid and 7.5 μM cold taurocholic acid, 20 minutes, read-out: hLBAT IC50
T1 construct: expressed in transfected cells; kept under Geneticin selection
T1 sequence (Q14973 1-349): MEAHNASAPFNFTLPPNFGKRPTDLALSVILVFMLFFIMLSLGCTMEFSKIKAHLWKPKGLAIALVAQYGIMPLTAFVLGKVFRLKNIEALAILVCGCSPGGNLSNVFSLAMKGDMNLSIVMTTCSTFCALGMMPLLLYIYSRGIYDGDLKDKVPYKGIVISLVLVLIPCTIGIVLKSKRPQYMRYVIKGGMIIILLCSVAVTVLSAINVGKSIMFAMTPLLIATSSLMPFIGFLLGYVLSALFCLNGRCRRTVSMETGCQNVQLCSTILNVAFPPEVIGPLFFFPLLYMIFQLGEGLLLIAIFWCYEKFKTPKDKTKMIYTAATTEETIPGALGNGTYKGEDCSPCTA
Experimental: LBAT (h/m) Assay Protocol
20,000 cells (Human or Mouse LBAT-overexpressing cells) were seeded in 96-wells plate (Corning CLS3809) in 100 μL MEM-alpha medium (Gibco 12571-063) supplemented with 10% FBS (Gibco 10438026) containing Geneticin (Gibco 10131-027) (1 mg/mL) and incubated at 37° C. in 5% CO2 for 24 hours. After incubation, media was decanted from the wells and cells were washed two times with 300 μL of basal MEM-alpha medium (FBS-free). After decanting basal MEM-alpha medium each time, plates were tapped against paper towel to ensure maximum removal of residual media.
For human LBAT, incubation mix was prepared by adding test inhibitor dilutions (3-fold serial dilution in DMSO (Sigma D2650), 10 points) in MEM-alpha (without FBS) containing 0.3 μM 3H-taurocholic acid (ARC ART-1368) and 7.5 μM cold taurocholic acid (Sigma T4009) (maintaining 0.2% final DMSO concentration). For mouse LBAT, incubation mix was prepared by adding test inhibitor dilutions (3-fold serial dilution in DMSO, 10 points) in MEM-alpha (without FBS) containing 0.3 μM 3H-taurocholic acid and 25 μM cold taurocholic acid maintaining 0.2% final DMSO concentration).
50 μL of incubation mix containing test inhibitors was then added to the wells (in duplicate) and the plates were incubated for 20 minutes in a CO2 incubator at 37° C. After incubation, the reaction was stopped by keeping the plates on ice water mix for 2-3 minutes and then the incubation mix was aspirated completely from the wells. The wells were washed two times with 250 μL of chilled unlabelled 1 mM taurocholic acid dissolved in HEPES (Gibco 15630080)-buffered (10 mM) HBSS (Gibco 14175079) (pH 7.4). The plates were tapped against a paper towel after every wash to ensure maximum removal of blocking buffer.
100 μL of MicroScint-20 (PerkinElmer 6013621) was added to the wells and kept overnight at room temperature before reading the plates in TopCount NXT™ Microplate Scintillation and Luminescence Counter from PerkinElmer under 3H Test protocol (set at 120 seconds reading time per well, with normal plate orientation).
(§1) Preparation of Test Compound Dilutions
(§2) All test compounds were provided in powder form at room temperature. 10 mM DMSO stocks of the test compounds were prepared, aliquoted and stored at −20° C. From the 10 mM DMSO stock of the compounds, a 3-fold serial dilution in DMSO was prepared to get a total of 10 dilutions of the test compounds. 0.5 μL of this dilution in DMSO was added to 250 μL of FBS-free basal media containing 3H-taurocholic acid and cold taurocholic acid to prepare the incubation mixture.

Human IBAT = biological target: T2, Human IBAT (Homo sapiens, UniProt Q12908); experiment: IBAT (h/m) assay, human IBAT-overexpressing cells, 3H-taurocholic acid uptake; format: cell-based; settings: 0.25 μM 3H-taurocholic acid and 5 μM cold taurocholic acid, 20 minutes, highest test concentration 10 μM, read-out: hIBAT IC50
T2 construct: expressed in transfected cells; kept under Puromycin selection
T2 sequence (Q12908 1-348): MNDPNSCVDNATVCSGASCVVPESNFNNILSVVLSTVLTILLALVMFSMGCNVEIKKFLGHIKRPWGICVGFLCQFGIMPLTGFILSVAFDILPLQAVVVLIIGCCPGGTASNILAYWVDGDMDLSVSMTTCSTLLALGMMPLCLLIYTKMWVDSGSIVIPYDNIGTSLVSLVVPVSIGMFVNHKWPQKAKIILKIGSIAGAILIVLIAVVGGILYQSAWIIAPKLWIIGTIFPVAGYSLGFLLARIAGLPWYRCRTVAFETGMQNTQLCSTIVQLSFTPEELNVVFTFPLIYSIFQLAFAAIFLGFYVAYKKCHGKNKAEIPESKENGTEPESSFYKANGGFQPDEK
Experimental: IBAT (h/m) Assay Protocol
10,000 cells (Human or Mouse IBAT-overexpressing cells) were seeded in 96-wells plate (Corning CLS3809) in 200 μL MEM-alpha medium (Gibco 12571-063) supplemented with 10% FBS (Gibco 10438026) containing Puromycin (Gibco A1113803) (10 μg/mL) and incubated at 37° C. in 5% CO2 for 48 hours. After incubation, media was decanted from the wells and cells were washed two times with 300 μL of basal MEM-alpha medium (FBS-free). After decanting basal MEM-alpha medium each time, plates were tapped against paper towel to ensure maximum removal of residual media. Test inhibitor dilutions (highest test concentration being 10 μM, 3-fold serial dilution, 10 points) prepared in DMSO (Sigma D2650) were added in incubation mix (maintaining 0.2% final DMSO concentration) containing 0.25 μM 3H-taurocholic acid (ARC ART-1368) and 5 μM of cold taurocholic acid (Sigma T4009). 50 μL of incubation mix containing test inhibitors was then added to the wells (in duplicate) and the plates were incubated for 20 minutes in a CO2 incubator at 37° C. After incubation, the reaction was stopped by keeping the plates on ice water mix for 2-3 minutes and then the incubation mix was aspirated completely from the wells. The wells were washed two times with 250 μL of chilled unlabelled 1 mM taurocholic acid dissolved in HEPES (Gibco 15630080)-buffered (10 mM) HBSS (Gibco 14175079) (pH 7.4). The plates were tapped against a paper towel after every wash to ensure maximum removal of blocking buffer.
100 μL of MicroScint-20 (PerkinElmer 6013621) was added to the wells and kept overnight at room temperature before reading the plates in TopCount NXT™ Microplate Scintillation and Luminescence Counter from PerkinElmer under 3H Test protocol (set at 120 seconds reading time per well).
as §1, §2

Row | IC50 (Human LBAT) | IC50 (Human IBAT) | SMILES
1 | 7.4 nM | 294 nM | CCCCC1CN(c2ccccc2)c2cc(SC)c(OCC3(C(=O)O)CC3)cc2S(=O)(=O)N1C (single isomer, unassigned) [4, enantiomer 2]
2 | 2.3 nM | 682 nM | CCCCC1CN(c2ccccc2)c2cc(SC)c(OCC(C)(C)C(=O)O)cc2S(=O)(=O)N1C (single isomer, unassigned) [2, enantiomer 2]
3 | 6.2 nM | 290 nM | CCCCC1CN(c2ccccc2)c2cc(SCC)c(OCC(C)(C)C(=O)O)cc2S(=O)(=O)N1C (single isomer, unassigned) [6, enantiomer 2]
4 | 5 nM | 166 nM | CCCCC1CN(c2ccccc2)c2cc(SCC)c(OCC3(C(=O)O)CC3)cc2S(=O)(=O)N1C (single isomer, unassigned) [8, enantiomer 1]
5 | 8.9 nM | 615 nM | CCCCC1CN(c2ccccc2)c2cc(SCC)c(OCC(C)(C)C(=O)O)cc2S(=O)(=O)N1C (stereo not shown) [Example 5, 3-((3-Butyl-7-(ethylthio)-2-methyl-1,1-dioxido-5-phenyl-2,3,4,5-tetrahydro-1,2,5-benzothiadiazepin-8-yl)oxy)-2,2-dimethylpropanoic acid]
6 | 22 nM | 2400 nM | CCCCC1CN(c2ccccc2)c2cc(SC)c(OCC(OC)C(=O)O)cc2S(=O)(=O)N1C (single isomer, unassigned) [32, diastereomer 1]
7 | 13 nM | 274 nM | CCCCC1CN(c2ccccc2)c2cc(SC)c(OCC3(C(=O)O)CC3)cc2S(=O)(=O)N1C (stereo not shown) [Example 3, 1-(((3-Butyl-2-methyl-7-(methylthio)-1,1-dioxido-5-phenyl-2,3,4,5-tetrahydro-1,2,5-benzothiadiazepin-8-yl)oxy)methyl)cyclopropane-1-carboxylic acid]
8 | 3.3 nM | 360 nM | CCCCC1CN(c2ccc(F)cc2)c2cc(SC)c(OCC(C)(C)C(=O)O)cc2S(=O)(=O)N1C (stereo not shown) [Example 13, 3-((3-butyl-5-(4-fluorophenyl)-2-methyl-7-(methylthio)-1,1-dioxido-2,3,4,5-tetrahydro-1,2,5-benzothiadiazepin-8-yl)oxy)-2,2-dimethylpropanoic acid]
9 | 25 nM | 405 nM | CCCCC1CN(c2ccccc2)c2cc(SCC)c(OCC3(C(=O)O)CC3)cc2S(=O)(=O)N1C (stereo not shown) [Example 7, 1-(((3-Butyl-7-(ethylthio)-2-methyl-1,1-dioxido-5-phenyl-2,3,4,5-tetrahydro-1,2,5-benzothiadiazepin-8-yl)oxy)methyl)cyclopropane-1-carboxylic acid]
10 | 16 nM | 412 nM | CCCCC1CN(c2ccccc2)c2cc(SC)c(OCC(C)(OC)C(=O)O)cc2S(=O)(=O)N1C (single isomer, unassigned) [24, diastereomer 2]
11 | 8.4 nM | 1030 nM | CCCCC1CN(c2ccccc2)c2cc(SC)c(OCC(C)(OC)C(=O)O)cc2S(=O)(=O)N1C (single isomer, unassigned) [24, diastereomer 1]
12 | 14 nM | 257 nM | CCCCC1CN(c2ccccc2)c2cc(SC)c(OCC(C)(OC)C(=O)O)cc2S(=O)(=O)N1C (single isomer, unassigned) [Example 23, 3-((3-Butyl-2-methyl-7-(methylthio)-1,1-dioxido-5-phenyl-2,3,4,5-tetrahydro-1,2,5-benzothiadiazepin-8-yl)oxy)-2-methoxy-2-methylpropanoic acid]
13 | 6 nM | 117 nM | CCCCC1CN(c2ccc(F)cc2)c2cc(SCC)c(OCC(O)C(=O)O)cc2S(=O)(=O)N1C (stereo not shown) [Example 33, 3-((3-butyl-7-(ethylthio)-5-(4-fluorophenyl)-2-methyl-1,1-dioxido-2,3,4,5-tetrahydro-1,2,5-benzothiadiazepin-8-yl)oxy)-2-hydroxypropanoic acid]
14 | 28 nM | 428 nM | CCCCC1CN(c2ccccc2)c2cc(SC)c(OCC(C)(OC)C(=O)O)cc2S(=O)(=O)N1C (stereo not shown) [Example 22, 3-((3-Butyl-2-methyl-7-(methylthio)-1,1-dioxido-5-phenyl-2,3,4,5-tetrahydro-1,2,5-benzothiadiazepin-8-yl)oxy)-2-methoxy-2-methylpropanoic acid]
